70 molecules from ChEMBL document CHEMBL3507680, “University of Dundee, Gates Library screen for HepG2 cell viability” can be followed below.

Each structure is given as a SMILES string.

The nature of this data set: Human HepG2 cell viability assay in 384 well format. The following applies: HepG2 cells, read-out: Inhibition. In kind it is toxicity, cell-based. Further details: dose 125 nL, time 70.5 hour; concentration not given beside the values.
For `CN(CCOc1cccc(F)c1)Cc1nc2c(cnn2C)c(=O)[nH]1`, the cytotoxicity at 70.5 h is -8.53%.

`O=C(Nc1ccccc1)C1CN(CC2CCOCC2)CC12CCOCC2` (stereo not given): the cytotoxicity at 70.5 h is 9.8%.

Regarding `COCCN1C[C@H](OCc2csc(C)n2)[C@H]2COC[C@H]21`, the cytotoxicity at 70.5 h is -9.78%.

As to `CC1(C)CC(=O)c2cnc3nc(N4CCOCC4)nc(O)c3c2C1`, the cytotoxicity at 70.5 h was -1.04%.

As to `NC(=O)N1CCC2(CCN(C(=O)c3cccnc3)CC2)C1`, the cytotoxicity at 70.5 h was 0.925%.

As to `Cc1nsc(N2CCCN(C(=O)NCc3cc(C)on3)CC2)n1`, the cytotoxicity at 70.5 h is -1.32%.

For `CC(C)(C(=O)O)S(=O)(=O)c1ccc(Br)cc1`, the cytotoxicity at 70.5 h was determined as 0.0653%.

For `CC(NC(=O)NCCCN(C)C)c1ccc2c(c1)CCC(=O)N2` (stereo not given), the cytotoxicity at 70.5 h was -10.2%.

`CN1CCc2nc(C3CCCCN3Cc3ccccc3Cl)ncc2C1` (stereo not given): the cytotoxicity at 70.5 h was -4.18%.

As to `CSc1ccc(CNCCS(=O)(=O)N2CCOCC2)cc1`, the cytotoxicity at 70.5 h was -3.35%.

For `CCc1ccc(CNC[C@H]2C[C@@H](CO)N(C)[C@H]2c2ccccc2F)o1`, the cytotoxicity at 70.5 h was -2.04%.

With `Cn1ccnc1CN1CCOC(Cc2ccccc2)C1` (stereo not given), the cytotoxicity at 70.5 h is -3.39%.

As for `COc1cc(N2CCC3(CC2)CNC(=O)CO3)ncn1`, the cytotoxicity at 70.5 h is -8.43%.

Take `C[C@@H](N)C(=O)N1CC2(CCNCC2)c2cc(Cl)ccc21`: the cytotoxicity at 70.5 h amounted to 0.763%.

On to `Cc1ccc(CN2CC[C@H](c3nnc(-c4ccco4)o3)C2)cc1`, for which the cytotoxicity at 70.5 h was found to be 6.16%.

With `Cc1cc2nc(SCC(=O)N3CCCC3)n(-c3ccccc3)c(=O)c2[nH]1`, the cytotoxicity at 70.5 h is -21.9%.

For the molecule `CC1CCN(CCCNC(=O)Nc2cc3c(cc2Br)OCCO3)CC1`, the cytotoxicity at 70.5 h is -0.325%.

Regarding `CC(=O)N1CCCC(C(=O)N2CCC(=Cc3cccc(F)c3)CC2)C1` (stereo not given), the cytotoxicity at 70.5 h is -9.9%.

With `O=C1Nc2ccccc2CC12CCCN2Cc1cccnc1` (stereo not given), the cytotoxicity at 70.5 h is -2.78%.

In the case of `CCc1nc2n(n1)CC(NCc1nc(C)ccc1O)CC2` (stereo not given), the cytotoxicity at 70.5 h is -8.85%.

As for `Cn1ccnc1CCC1CCCCN1Cc1nccn1C` (stereo not given), the cytotoxicity at 70.5 h was determined as 14.9%.

Regarding `CC(=O)Nc1ccc(CCC2(NC(=O)C3CC3)CCCCC2)cn1`, the cytotoxicity at 70.5 h is -0.0205%.

Consider `COCCN(C)C(C)c1cccc(S(N)(=O)=O)c1` (stereo not given), for which the cytotoxicity at 70.5 h amounted to 0.815%.

Regarding `Cn1cc(CN(C/C=C/c2ccccc2)C2CC2)cn1`, the cytotoxicity at 70.5 h is -8.38%.

Take `Cc1ccc(CN2CCN(Cc3cc(C)n[nH]3)CC2CCO)cc1` (stereo not given): the cytotoxicity at 70.5 h was 12.1%.

Consider `CCc1nc(C)c(-c2nccn2CC2CCCCO2)[nH]1` (stereo not given), for which the cytotoxicity at 70.5 h is -10.5%.

With `O=C(NCC(=O)N1CCCCC1)c1sccc1C1CC1`, the cytotoxicity at 70.5 h was 7.84%.

`CC(CNC(=O)CCCn1cncn1)N1CCc2ccccc2C1` (stereo not given): the cytotoxicity at 70.5 h turned out to be 11.6%.

Regarding `CC(NCc1nnc2n1CCCC2)c1nc(C(C)(C)C)no1` (stereo not given), the cytotoxicity at 70.5 h is -13.6%.

For the molecule `O=C(C(CNCc1ccco1)c1ccccc1)N1CCOCC1` (stereo not given), the cytotoxicity at 70.5 h was -4.97%.

`OC1(CNc2ccc(Br)cn2)CCC1`: the cytotoxicity at 70.5 h came out at 16.3%.

In the case of `CCc1c(C)nn(CCNC(=O)c2csc(C)n2)c1C`, the cytotoxicity at 70.5 h is -6.58%.

`O=C(N1CCc2ccccc2CC1)C1(O)Cc2ccccc2C1`: the cytotoxicity at 70.5 h is -2.64%.

As for `Cc1ccccc1-c1noc(CN2CCc3nn(C)c(=O)cc3C2)n1`, the cytotoxicity at 70.5 h is -11.6%.

In the case of `Cc1ccc(OCc2cccc(C(=O)N(C)C(C)CC#N)c2)cn1` (stereo not given), the cytotoxicity at 70.5 h was found to be 0.55%.

Turning to `O=C(O)c1cccc(CN2CCCC(Cc3ccn[nH]3)C2)c1` (stereo not given), the cytotoxicity at 70.5 h is -10.2%.

Take `CN(C)C(=O)c1ccc2c(c1)N(C)C(CC(=O)NC(C)(C)CO)CO2` (stereo not given): the cytotoxicity at 70.5 h turned out to be 18.8%.

For `CCCc1noc(CS(=O)(=O)c2cccc(OC)c2)n1`, the cytotoxicity at 70.5 h is -5.69%.

As for `O=C(c1ccco1)N1CCO[C@@H]2CN(CC3CC3)CC[C@@H]2C1`, the cytotoxicity at 70.5 h stood at 28%.

With `COc1ccc(-c2n[nH]cc2CN(C)Cc2nnc(C)o2)c(F)c1`, the cytotoxicity at 70.5 h is 1.72%.

In the case of `Cc1ccc(NS(=O)(=O)c2ccc(C#N)cc2)c(CN(C)C)c1`, the cytotoxicity at 70.5 h is -3.45%.

As to `Cc1n[nH]c(C2CN(Cc3csc(C4CCCC4)n3)CCO2)n1` (stereo not given), the cytotoxicity at 70.5 h was -6.59%.

For `Cc1nc(C)n(CC2CN(Cc3ccc4c(c3)OCCO4)CCO2)n1` (stereo not given), the cytotoxicity at 70.5 h was -14.3%.

Consider `COCC(=O)N1CCCCC1c1nc(N(C)C)ncc1-c1cc(C)no1` (stereo not given), for which the cytotoxicity at 70.5 h amounted to 21.1%.

Regarding `N#Cc1cccn(CCOc2ccc(Cl)cc2)c1=O`, the cytotoxicity at 70.5 h was -1.43%.

Consider `CNC(=O)[C@@H](C1CC1)N1CCC[C@H]1C(=O)NCC(C)C`, for which the cytotoxicity at 70.5 h was -7.95%.

On to `O=C(CCCNC(=O)c1cnccn1)Nc1ncc[nH]1`, for which the cytotoxicity at 70.5 h is -27.2%.

Turning to `CCS(=O)(=O)N1CCC2(CC(=O)N(c3cncnc3)C2)C1` (stereo not given), the cytotoxicity at 70.5 h was -3.21%.

For the molecule `CC(C)CCN(CCC(C)C)Cc1nc2c(cnn2C)c(=O)[nH]1`, the cytotoxicity at 70.5 h worked out at 2.1%.

`CCCN1CCN(C(=O)Nc2ccccc2Cl)[C@H]2CS(=O)(=O)C[C@H]21`: the cytotoxicity at 70.5 h is -4.21%.

`COc1ccc(CN2C[C@@H]3CN(Cc4cccnc4)CCO[C@@H]3C2)cc1`: the cytotoxicity at 70.5 h was -9.13%.

For `CCc1nccn1CCC(=O)N1CC[C@@H](c2ccc(F)cc2)[C@H](O)C1`, the cytotoxicity at 70.5 h is -12.3%.

`CN(c1cccnn1)[C@@H]1CC[C@@H]2CN(Cc3cccc(C(=O)O)c3)C[C@@H]21`: the cytotoxicity at 70.5 h is -6.81%.

Consider `Cc1cc(C(=O)N2C[C@@H](C(=O)O)[C@H](C(C)C)C2)cs1`, for which the cytotoxicity at 70.5 h is -2.46%.

On to `NC(=O)C1CCN(C(=O)CCCc2nnc(-c3ccccc3)o2)C1` (stereo not given), for which the cytotoxicity at 70.5 h is -0.453%.

Turning to `CC(C)c1cc(NC(=O)c2ccncc2)[nH]n1`, the cytotoxicity at 70.5 h is 2.62%.

For `CC(C)CN1CCCC2(CCN(C(=O)c3cnccn3)C2)C1` (stereo not given), the cytotoxicity at 70.5 h is -14.6%.

In the case of `Cc1nnc(CN(C)CC(=O)N2CCCN(C3CCCC3)CC2)n1C`, the cytotoxicity at 70.5 h was -6.96%.

On to `N#CCCN(CCC#N)C(=O)c1cccc(N2CCNC2=O)c1`, for which the cytotoxicity at 70.5 h was -7.77%.

On to `CC[C@H]1COCCN1C(=O)c1ccc(OC)c(N2CCOCC2)c1`, for which the cytotoxicity at 70.5 h was -10.3%.

Take `Cc1nc(C)n(CC2CN(Cc3noc(C4CC4)n3)CCO2)n1` (stereo not given): the cytotoxicity at 70.5 h is -6.68%.

As for `O=C(CN1CCCC(c2ccc(C(=O)O)cc2)C1)NC1CC1` (stereo not given), the cytotoxicity at 70.5 h was -5.55%.

For the molecule `Oc1ccc(-c2c(-c3ccccc3)ncn2C[C@H]2CCCN2)cc1`, the cytotoxicity at 70.5 h is -2.17%.

Take `Cc1cc(-c2cnn(CCNC(=O)c3cnn(C)c3)c2C2CC2)on1`: the cytotoxicity at 70.5 h is -2.33%.

As to `CC(C)(C)c1nc(CN2CCOC(Cn3cccn3)C2)no1` (stereo not given), the cytotoxicity at 70.5 h was found to be 0.39%.

Consider `Cc1ccc2nc(CSCC(=O)Nc3nnc(C(C)C)s3)cc(=O)n2c1`, for which the cytotoxicity at 70.5 h is -6.09%.

Regarding `CC(C)(C)c1noc(CCC(=O)NCC2CCS(=O)(=O)C2)n1` (stereo not given), the cytotoxicity at 70.5 h is 1.1%.

With `CC(=O)N1CCC2(CC1)C(=O)N(c1ccc(C)nc1)CCN2CC(C)C`, the cytotoxicity at 70.5 h was -4.45%.

Regarding `CS(=O)(=O)N1CCC2(CC1)CC(OCC1CCOCC1)CO2` (stereo not given), the cytotoxicity at 70.5 h is -7.58%.

As for `COCCN(C)CC(=O)N1C[C@H]2CC[C@@H]1CN(C(=O)c1ccncc1)C2`, the cytotoxicity at 70.5 h is -10.1%.
